The source of these data is patent US20240350402A1, “TOPICAL DRUG TREATMENT TO PREVENT OR REDUCE CORNEAL SCARRING” (The Cleveland Clinic Foundation, priority 2021, published 2024).

For the data set, the system named is α-smooth muscle actin (SMA) myofibroblast marker. Nature of the data set: DMR model: IHC for SMA and keratocan, area of SMA-positive posterior fibrosis (QuPath). Format: in vivo, rabbit. As to the method: The rabbits had general anaesthesia with 30 mg/kg ketamine hydrochloride and 5 mg/kg xylazine by IM injection. In addition, topical proparacaine hydrochloride 1% (Alcon, Ft Worth, TX, USA) was applied to each eye prior to the surgery. One cornea selected at random in each group either had sham surgery without Descemetorhexis or an 8 mm diameter central Descemet's membrane-endothelial excision. The time point of one month after surgery was selected for the study because myofibroblasts and fibrosis in the posterior cornea was maximal at this time point in a prior time course Descemetorhexis study (Sampaio et al., 2021). Descemetorhexis was performed as described in the prior study (Sampaio et al., 2021). Briefly, a wire lid speculum was placed into one eye of each rabbit and an 8 mm diameter gentian violet circle was marked on the epithelial surface for reference. A limbal entry incision was created with a 1.6 mm blade (Bausch and Lomb, Rochester, NY, USA) and 0.3 ml Healon OVD (Abbott Medical Optics Inc. Santa Ana, CA, USA) was injected into the anterior chamber. A reversed Sinskey hook (Katena, Denville, New Jersey, USA) was placed into the anterior chamber and an 8 mm diameter disc of Descemet's membrane and endothelium was excised underlying the 8 mm area previously marked on the anterior corneal surface, without a subsequent endothelial corneal transplant. No removal of Descemet's membrane or endothelium was performed in unwounded sham surgery eyes. Remaining Healon OVD was removed with a Simcoe irrigation and aspiration cannula (Bausch & Lomb, Storz, Rochester, NY, USA) and the anterior chamber was filled with balanced salt solution (BSS). A single 10-0 nylon suture was placed at the incision site to prevent leakage from the anterior chamber. One drop of ciprofloxacin (Alcon, Ft. Worth, TX, USA) was applied to the corneas immediately after surgery and four times a day until the epithelium entry wound healed at approximately 2 days.
The oral solution was prepared with 5 ml distilled water+50 ml ora-plus (suspending vehicle—Perrigo, Dublin, Ireland)+45 ml Ora-sweet (flavored syrup vehicle—Perrigo).
At one month after surgery and treatment, an intravenous injection of 100 mg/kg Beuthanasia (Shering-Plough, Kenilworth, NJ) was given for euthanasia with the animals under general anaesthesia. Sharp Westcott scissors (Fairfield, CT, USA) and 0.12 forceps (Storz, St. Louis, MO) were used to remove the corneo-scleral rims of the sham unwounded and DMR eyes without touching the cornea. Each cornea was set in the center of a 24×24×5 mm mold (Fisher Scientific, Pittsburgh, PA, USA) and the mold was filled in liquid OCT compound (Sakura Finetek, Torrance, CA, USA). The molds and cornea-scleral rims were quick frozen on dry ice and stored at −80° C. until sections were cut.
Each OCT block was bisected in the exact center of the cornea, and 8 μm thick transverse sections were cut from the central cornea within the previous DMR injury or unwounded sham surgery corneas with a cryostat (HM 505M; Micron GmbH, Walldorf, Germany) and three sections per slide were placed on 25 mm×75 mm×1 mm Superfrost Plus microscope slides (Fisher Scientific, Pittsburgh, PA, USA). Slides were maintained at −20° C. until immunohistochemistry.
Duplex immunohistochemistry (IHC) was performed after masking of slides by a researcher not involved in the analysis using previously described methods (de Oliveira et al., 2021) using primary antibodies (Table 2) confirmed by western blotting and IHC to recognize rabbit antigens or isotypic control antibodies (ThermoFisher Scientific, Waltham, MA), and secondary fluorescent tagged antibodies (Table 3).
The area of the SMA-positive posterior fibrotic stroma was quantitated with the original groups masked to the analyzer by standardized photography with a 10× objective on a Leica DM6B upright microscope equipped with an automated stage and Leica 7000 T camera using the LAS X software (Leica Microsystems, GmbH, Wetzlar, Germany). […]

Consider `CCCCc1nc(Cl)c(CO)n1Cc1ccc(-c2ccccc2-c2nn[nH]n2)cc1` [losartan], for which the “mean area of the SMA-positive posterior fibrotic area among DMR groups” value (DMR, oral losartan alone, one month) is “highest”. The “mean SMA-positive posterior fibrotic area compared to the other DMR groups” value (DMR, topical 0.4 mg/ml six times a day) is reported as “significantly lower”. Also, where the note is “DMR, topical 0.4 mg/ml six times per day, one month”, the “SMA-positive fibrotic zone in the posterior cornea” value was “marked decrease”. Also, the “SMA-positive fibrosis in the posterior cornea” value (DMR, topical six times per day and oral three times per day, one month) is recorded as “decrease”. Further, the “SMA-positive posterior corneal fibrosis in uninjured corneas” value was “did not develop SMA-positive posterior corneal fibrosis” (oral losartan three times a day) and “did not develop SMA-positive posterior corneal fibrosis” (topical losartan six times a day).
